In patent US20100183692A1, “COMPOSITIONS” (priority 2007, published 2010):
“Also recorded” adds a separate entry of the source.

Columns and labels:
Format in all cases: cell-based
[1] = test system: Aspergillus niger ATCC 16404 spores; experiment: Sporicidal effect of test compounds in water; settings: for Spores/ml / Reduction factor: 0.1% test compound in water, after 7 days; for Reduction factor: count of negative control divided by count of test compound; for Reduction of spore counts / sporicidal effect in water (in words): 0.1% test compound, 7 days
Method: The reduction factor is determined by growing a suitable test organism (Aspergillus niger for fungi, Pseudomonas aeruginosa for gram-negative bacteria and Staphylococcus aureus for gram-positive bacteria) on a suitable culture medium on agar plates, harvesting and adding to a personal care product composition in a density of 3×10^5 organism/ml and counting the surviving organisms in the probe and a negative control at defined time interval, commonly 7 days. The count of the negative control is divided by the count of the probe and thereby the reduction factor is determined (compare example 1).
Aspergillus niger ATCC 16404 spores are added to water to obtain a density of 3×10^5 spores 1 ml. In order to prepare the spores, the test strain is grown for 5 days on potato dextrose agar at room temperature. The spores are harvested with a solution containing 0.1% Tween 80, peptone 0.1% and NaCl 0.85% and the spore concentration is adjusted to the density indicated above.
Test compounds are dissolved in dipropyleneglycol to a concentration of 20%.
These stock solutions are added to 10 ml aliquots of the spore suspension to obtain a final concentration of the test compounds of 0.1%. The sporicidal effect is shown by a reduction of spore counts after 7 days.
The reduction factor is determined as follows. Aliquots of the above prepared suspension of microorganisms (here: spore suspension prepared as described above) are plated on a suitable agar medium (see above) and the developing colonies are counted both for samples with test compound and for a negative probe (water). The count of the negative control is divided by the count of the test compound and thereby the reduction factor is determined. A negative control (water) accordingly has a reduction factor of 1 (no effect on the microorganism).

[2] = test system: Aspergillus niger ATCC 16404 spores; experiment: Sporicidal effect of a) and b) compounds in a cosmetic cream; settings: for Reduction factor: cosmetic cream
Method: A preservative-free cosmetic cream for application to the human skin is used (Cremor basalis, Fagron GmbH, Barsbüttel, Germany).
Test samples of cream contain different amounts of compounds a) and b) added to an aliquot of 10 g of the cream in 50 ml tubes to give a concentration (w/w) of 0.125-0.25% as shown in the table below. After addition of the compounds a) and b), the cream is thoroughly mixed to achieve a homogeneous distribution.
After 1-3 days of equilibration of the cream (storage at room temperature to achieve a homogenous partitioning of compounds between oil and water phase), to each sample 100 μl of a spore suspension of Aspergillus niger ATCC 16404 containing 3×10^7 spores/ml (prepared as described in example 1) is added. After regular test intervals (7 days), samples of 1 g cream are removed and added to 20 ml of a neutralizer solution containing 0.2% lecithin, 2% Tween 80 and 0.5% NaCl. These dilutions are vigorously shaken for 10 min until the cream is dissolved, and then aliquots of this solution are spread plated on potato dextrose agar containing 0.2% Tween 80. After a sufficient time for colonies to grow (about 48 h), the number of colony forming units (and therefore surviving spores in the cream) are counted.

[3] = test system: Staphylococcus aureus (DSMZ 799) and Pseudomonas aeruginosa (ATCC 15442), mixed 1:1; experiment: Bactericidal effect of a) and b) compounds in a cosmetic cream
Method: Test samples of the same cream used in Example 2 contain different amounts of compounds a) and b) added to an aliquot of 10 g of the cream in 50 ml tubes to give a concentration (w/w) of 0.125-0.25% as shown in the table below. After addition of the compounds a) and b), the cream is thoroughly mixed to achieve a homogeneous distribution.
As test organisms Staphylococcus aureus (DSMZ 799) and Pseudomonas aeruginosa (ATCC 15442) are used. The strains are grown overnight in Mueller-Hinton broth and adjusted to a cell density of 1×10^8 cfu (colony forming units) per ml.
The two bacterial strains are mixed in a ratio of 1:1 and 100 μl of this mixed inoculum is added to 10 ml aliquots of the cosmetic cream.
The resulting mixtures are incubated at room temperature and at the regular intervals samples are removed, suspended in neutralizer solution and diluted as described above (example 2).
Aliquots of these suspended and diluted samples are plated on tryptic soy agar supplemented with 0.5% Tween 80 and then incubated for 24 h at 37° C. Surviving bacteria are counted.

[4] = fragrant acid (sodium salt) 0.125% w/w, 4-HBA 0, after 7 days
[5] = fragrant acid (sodium salt) 0.250% w/w, 4-HBA 0, after 7 days
[6] = fragrant acid (sodium salt) 0.125% w/w, 4-HBA 0, after 24 h
[7] = fragrant acid (sodium salt) 0.250% w/w, 4-HBA 0, after 24 h

| SMILES | Spores/ml [1] | Reduction factor [1] | Reduction of spore counts / sporicidal effect in water (in words) [1] | Sporicidal activity in cream (in words) ([2]; combined with cinnamic acid or anisic acid in cream at 0.125% concentration, within 7 days) | Reduction factor ([2]; no fragrant acid, 4-HBA 0.125% w/w, after 7 days) | Reduction factor ([3]; no fragrant acid, 4-HBA 0.125% w/w, bacterial counts after 24 h) | Reduction factor [2, 4] | Reduction factor [2, 5] | Reduction factor [3, 6] | Reduction factor [3, 7] |
| --- | --- | --- | --- | --- | --- | --- | --- | --- | --- | --- |
| O=Cc1ccc(O)cc1 [4-hydroxybenzaldehyde] | >1.2 × 10^5 Spores/ml | <2 | no significant sporicidal effect; also recorded: No significant reduction of spore counts | complete killing of spores | 5.5 | 10 |  |  |  |  |
| COc1ccc(C=O)cc1 [4-methoxy-benzaldehyde, 4-methoxybenzaldehyde] | 4.68 × 10^4 Spores/ml | 5 | No significant reduction of spore counts |  |  |  |  |  |  |  |
| COc1ccc(C(=O)O)cc1 [Anisic acid, anisic acid] |  |  |  |  |  |  | 1.4 | 12.5 | 1 | 5 |
| O=C(O)/C=C/c1ccccc1 [Cinnamic acid, cinnamic acid] |  |  |  |  |  |  | 1.0 | 1.1 | 2.0 | 10 |
